Experimental data from patent US9687539B2, “CD4+ T survivin epitopes and uses thereof” (Commissariat a I'Energie Atomique, priority 2005, dated 2017).
Substitutions are numbered along the chain they refer to. pIC50: −log10 of the molar value. No end group written: not given here.

Tests used:
[1] = tested on: 12 predominant HLA II molecules; assay: Binding to the 12 predominant HLA II molecules, summary; parameters: species or system human; conditions: for No. of molecules fixed: number of the 12 predominant HLA II molecules bound (IC50 < 1000 nM)
Source text: The assays for binding to HLA II molecules are competitive binding assays with immunoenzymatic visualization, as described in U.S. Pat. No. 6,649,166, Texier et al., J. Immunol., 2000, 164, 3177-3184 and Texier et al., Eur. J. Immunol., 2001, 31, 1837-1846, for the HLA-DR molecules, and in PCT international application WO 03/040299 and Castelli et al., J. Immunol., 2002, 169, 6928-6934, for the HLA-DP4 molecule. The use of these assays for measuring the binding activity of peptides derived from various antigens is illustrated in U.S. Pat. No. 6,649,166 and PCT international applications WO 02/090382, WO 03/040299 and WO 2004/014936.
The sensitivity of each assay is reflected by the IC50 values observed with the nonbiotinylated peptides which correspond to the tracers; the IC50 values of the tracers vary by a factor of less than three.

HLA-DRB5 (DRB5*0101) = HLA-DRB5 (DRB5*0101) (Homo sapiens, UniProt P01903+Q30154); assay: Competitive HLA II/peptide binding assay, HLA-DRB5; conditions: competition with biotinylated tracer; 3 independent experiments
HLA-DR7 (DRB1*0701) = HLA-DR7 (DRB1*0701) (Homo sapiens, UniProt P01903+P01911, A100R/A102G/A103Q/D57E/D86V/E43K/F76Y/K127E/L162R/M171V/P40G/Q125H/Q99D/R33Q/R42Y/R54Q/S133A/S66F/T210M/V115G/Y107V/Y59L/Y89S); assay: biochemical; conditions: competition with biotinylated tracer; 3 independent experiments; read-out: Binding activity DR7 (IC50)
HLA-DR15 (DRB1*1501) = HLA-DR15 (DRB1*1501) (Homo sapiens, UniProt P01903+P01911); assay: Competitive HLA II/peptide binding assay, HLA-DR15; conditions: competition with biotinylated tracer; 3 independent experiments
HLA-DRB3 (DRB3*0101) = HLA-DRB3 (DRB3*0101) (Homo sapiens, UniProt P01903+P79483); assay: Competitive HLA II/peptide binding assay, HLA-DRB3; conditions: competition with biotinylated tracer; 3 independent experiments
HLA-DR3 (DRB1*0301) = HLA-DR3 (DRB1*0301) (Homo sapiens, UniProt P01903+P01911, A100K/A102G/A103R/A169T/F55Y/I96L/K41T/L162R/M171V/P40S/Q125H/Q178H/Q39Y/R42S/S66N/T106N/T262R/W38E/Y61H); assay: biochemical; conditions: competition with biotinylated tracer; 3 independent experiments; read-out: Binding activity DR3 (IC50)
HLA-DR4 (DRB1*0401) = HLA-DR4 (DRB1*0401) (Homo sapiens, UniProt P01903+P01911, A100K/A169T/F76Y/I96L/K127E/L162R/M171V/N62H/P40V/Q125Y/R42H/S133A/S149N/S66Y/V115G/V209L/W38E); assay: Competitive HLA II/peptide binding assay, HLA-DR4; conditions: competition with biotinylated tracer; 3 independent experiments
HLA-DRB4 (DRB4*0101) = HLA-DRB4 (DRB4*0101) (Homo sapiens, UniProt P01903+P13762, G164S); assay: Competitive HLA II/peptide binding assay, HLA-DRB4; conditions: competition with biotinylated tracer; 3 independent experiments
HLA-DR1 (DRB1*0101) = HLA-DR1 (DRB1*0101) (Homo sapiens, UniProt P01903+P01911, A100R/D57E/F55L/F60I/F76Y/I96L/L162R/M171V/P40L/Q125E/R42F/V115G/Y59C); assay: Competitive HLA II/peptide binding assay, HLA-DR1; conditions: competition with biotinylated tracer; 3 independent experiments
HLA-DR13 (DRB1*1301) = HLA-DR13 (DRB1*1301) (Homo sapiens, UniProt P01903+P01911, A100E/A169T/K41T/L162R/M171V/P40S/Q125H/Q178H/Q39Y/Q99D/R42S/S66N/T262R/W38E/Y61H); assay: Competitive HLA II/peptide binding assay, HLA-DR13; conditions: competition with biotinylated tracer; 3 independent experiments; read-out: Binding activity DR13 (IC50)
HLA-DP402 (DP*0402) = biological target: T1, HLA-DP402 (DP*0402) (Homo sapiens, UniProt P04440+P20036, A65V/A84D/A85E/L207M); assay: biochemical; conditions: competition with biotinylated tracer; 3 independent experiments; read-out: Binding activity DP402 (IC50)
T1 sequence (P04440 30-258 A65V/A84D/A85E): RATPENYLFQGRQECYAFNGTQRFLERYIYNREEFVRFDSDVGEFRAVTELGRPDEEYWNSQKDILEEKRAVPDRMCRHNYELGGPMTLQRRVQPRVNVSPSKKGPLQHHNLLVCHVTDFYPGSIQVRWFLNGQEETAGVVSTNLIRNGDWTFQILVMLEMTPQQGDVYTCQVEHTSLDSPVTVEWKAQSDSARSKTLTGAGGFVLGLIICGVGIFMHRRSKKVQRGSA
T1 sequence (P20036 29-260): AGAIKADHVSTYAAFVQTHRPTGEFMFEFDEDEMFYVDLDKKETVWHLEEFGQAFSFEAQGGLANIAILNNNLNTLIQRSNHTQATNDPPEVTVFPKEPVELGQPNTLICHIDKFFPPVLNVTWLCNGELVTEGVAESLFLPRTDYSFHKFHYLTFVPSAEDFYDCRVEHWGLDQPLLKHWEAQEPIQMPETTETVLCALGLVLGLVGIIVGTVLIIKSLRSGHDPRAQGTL

HLA-DP401 (DP*0401) = biological target: T2, HLA-DP401 (DP*0401) (Homo sapiens, UniProt P04440+P20036); assay: biochemical; conditions: competition with biotinylated tracer; 3 independent experiments; read-out: Binding activity DP401 (IC50)
T2 sequence (P04440 30-258): T1 sequence (P04440 30-258 A65V/A84D/A85E) with V36A, D55A, E56A
T2 sequence (P20036 29-260): T1 sequence (P20036 29-260)

HLA-DR11 (DRB1*1101) = HLA-DR11 (DRB1*1101) (Homo sapiens, UniProt P01903+P01911, A100R/A169T/A87E/I96F/K41T/L162R/M171V/P40S/Q125H/Q178H/Q39Y/Q99D/R42S/S66Y/T262R/V115G/W38E); assay: biochemical; conditions: competition with biotinylated tracer; 3 independent experiments; read-out: Binding activity DR11 (IC50)

| Molecule | Binding specificity for HLA II molecules [1] | No. of molecules fixed [1] | pIC50 (HLA-DRB5 (DRB5*0101)) | pIC50 (HLA-DR7 (DRB1*0701)) | pIC50 (HLA-DR15 (DRB1*1501)) | pIC50 (HLA-DRB3 (DRB3*0101)) | pIC50 (HLA-DR3 (DRB1*0301)) | pIC50 (HLA-DR4 (DRB1*0401)) | pIC50 (HLA-DRB4 (DRB4*0101)) | pIC50 (HLA-DR1 (DRB1*0101)) | pIC50 (HLA-DR13 (DRB1*1301)) | pIC50 (HLA-DP402 (DP*0402)) | pIC50 (HLA-DP401 (DP*0401)) | pIC50 (HLA-DR11 (DRB1*1101)) |
| --- | --- | --- | --- | --- | --- | --- | --- | --- | --- | --- | --- | --- | --- | --- |
| CC(C)C[C@H](NC(=O)[C@H](Cc1ccccc1)NC(=O)[C@@H]1CCCN1C(=O)[C@H](CCC(N)=O)NC(=O)[C@H](Cc1c[nH]c2ccccc12)NC(=O)[C@H](C)NC(=O)[C@@H]1CCCN1C(=O)[C@@H]1CCCN1C(=O)[C@H](CC(C)C)NC(=O)[C@@H](NC(=O)[C@@H]1CCCN1)[C@@H](C)O)C(=O)N[C@@H](CCCCN)C(=O)N[C@@H](CC(=O)O)C(=O)N[C@@H](Cc1c[nH]cn1)C(=O)N[C@@H](CCCNC(=N)N)C(=O)O [4-18, P T L P P A W Q P F L K D H R] | bind only to the HLA-DR11 molecule | 1 | 5.26 | < 4.00 | < 4.00 | < 4.00 | < 4.00 | < 4.00 | < 4.00 | 4.35 | – | – | – | – |
| AGFIHCPTENEPDLA [peptide 41-55, A G F I H C P T E N E P D L A] | binds only to the HLA-DRB4 molecule | 1 | – | – | – | – | < 4.00 | 5.30 | – | – | < 4.00 | < 4.00 | < 4.00 | – |
| DPIEEHKKHSSGCAF [72-86, D P I E E H K K H S S G C A F] | – | 0 | – | < 4.00 | < 4.00 | < 4.00 | < 4.00 | < 4.00 | < 4.00 | – | – | < 4.00 | < 4.00 | < 4.00 |
| EGWEPDDDPIEEHKK [65-79, E G W E P D D D P I E E H K K] | – | 0 | < 4.00 | < 4.00 | < 4.00 | < 4.00 | < 4.00 | < 4.00 | < 4.00 | < 4.00 | < 4.00 | < 4.00 | < 4.00 | < 4.00 |
| ERMAEAGFIHCPTEN [36-50, E R M A E A G F I H C P T E N] | – | 0 | – | 4.77 | < 4.00 | < 4.00 | < 4.00 | 4.77 | – | – | < 4.00 | – | – | – |
| FCFKELEGWEPDDDP [59-73, F C F K E L E G W E P D D D P] | – | 0 | 4.35 | – | 5.10 | < 4.00 | < 4.00 | – | < 4.00 | – | < 4.00 | < 4.00 | < 4.00 | – |
| GEFLKLDRERAKNKI [99-113, G E F L K L D R E R A K N K I] | – | 3 | 7.66 | – | 5.92 | < 4.00 | – | – | 4.66 | – | – | < 4.00 | – | 7.40 |
| KEFEETAKKVRRAIE [122-136, K E F E E T A K K V R R A I E] | – | 3 | – | 4.70 | 5.92 | < 4.00 | – | < 4.00 | < 4.00 | – | – | < 4.00 | < 4.00 | – |
| KELEGWEPDDDPIEE [62-76, K E L E G W E P D D D P I E E] | – | 0 | < 4.00 | < 4.00 | 4.19 | 4.54 | < 4.00 | < 4.00 | < 4.00 | < 4.00 | < 4.00 | < 4.00 | < 4.00 | < 4.00 |
| KQFEELTLGEFLKLD [91-105, K Q F E E L T L G E F L K L D] | high affinity for the DR1, DR7, DRB5, DP401 and DP402 molecules | 5 | – | – | – | 4.52 | < 4.00 | – | < 4.00 | – | < 4.00 | – | – | 5.63 |
| LKLDRERAKNKIAKE [102-116, L K L D R E R A K N K I A K E] | – | 1 | 7.74 | – | < 4.00 | < 4.00 | < 4.00 | < 4.00 | < 4.00 | – | < 4.00 | < 4.00 | < 4.00 | – |
| MGAPTLPPAWQPFLK [1-15, M G A P T L P P A W Q P F L K] | bind only to the HLA-DR11 molecule | 1 | 5.10 | < 4.00 | – | < 4.00 | < 4.00 | < 4.00 | < 4.00 | – | < 4.00 | – | – | – |
